Laboratory results: patent US12077503B2, “Substituted cyclic amides and their use as herbicides” (FMC CORPORATION, priority 2015, dated 2024)

Columns and labels:
Type in all cases: in vivo
[1] = test system: barnyardgrass (Echinochloa crus-galli); experiment: Test G Pre-Emergence Protocol; conditions: Echinochloa crus-galli, pre-emergence, 312 h, evaluated after 13 days; for pest or weed control at 15.625 g/ha: 15.625 g ai/ha; for pest or weed control at 15.625 g/ha / pest or weed control at 250 g/ha: read-out: Barnyardgrass damage rating (100=total damage to plant; 0=no damage to plant); for pest or weed control at 62.5 g/ha: 62.5 g ai/ha, 100=total damage to plant, 0=no damage to plant, read-out: Barnyardgrass damage rating; for pest or weed control at 250 g/ha: 250 g ai/ha
In short: (§1)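 One day after sowing, pots are treated with a spray of test compound formulated in acetone/water 50:50 plus 0.5% Tween 20, giving 15.625, 62.5 or 250 g/ha. Evaluation on a 0–100 damage scale follows 13 days of glasshouse growth.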

[2] = test system: corn (Zea mays); experiment: Test G Pre-Emergence Protocol; conditions: Zea mays, pre-emergence, 312 h, evaluated after 13 days; for plant injury at 15.625 g/ha: 15.625 g ai/ha; for plant injury at 15.625 g/ha / plant injury at 250 g/ha: read-out: Corn damage rating (100=total damage to plant; 0=no damage to plant); for plant injury at 62.5 g/ha: 62.5 g ai/ha, 100=total damage to plant, 0=no damage to plant, read-out: Corn damage rating; for plant injury at 250 g/ha: 250 g ai/ha
In short: as §1

[3] = test system: giant foxtail (Setaria faberi); experiment: Test G Pre-Emergence Protocol; conditions: Setaria faberi, pre-emergence, 312 h, evaluated after 13 days; for pest or weed control at 15.625 g/ha: 15.625 g ai/ha; for pest or weed control at 15.625 g/ha / pest or weed control at 250 g/ha: read-out: Foxtail, Giant damage rating (100=total damage to plant; 0=no damage to plant); for pest or weed control at 62.5 g/ha: 62.5 g ai/ha, 100=total damage to plant, 0=no damage to plant, read-out: Foxtail, Giant damage rating; for pest or weed control at 250 g/ha: 250 g ai/ha
In short: as §1

[4] = test system: ivy-leaved morning glory (Ipomoea hederacea); experiment: Test G Pre-Emergence Protocol; conditions: Ipomoea, pre-emergence, 312 h, evaluated after 13 days; for pest or weed control at 15.625 g/ha: 15.625 g ai/ha; for pest or weed control at 15.625 g/ha / pest or weed control at 250 g/ha: read-out: Morningglory, Ivy-leaved damage rating (100=total damage to plant; 0=no damage to plant); for pest or weed control at 62.5 g/ha: 62.5 g ai/ha, 100=total damage to plant, 0=no damage to plant, read-out: Morningglory, Ivy-leaved damage rating; for pest or weed control at 250 g/ha: 250 g ai/ha
In short: as §1

[5] = test system: redroot pigweed (Amaranthus retroflexus); experiment: Test G Pre-Emergence Protocol; conditions: Amaranthus retroflexus, pre-emergence, 312 h, evaluated after 13 days; for pest or weed control at 15.625 g/ha: 15.625 g ai/ha; for pest or weed control at 15.625 g/ha / pest or weed control at 250 g/ha: read-out: Pigweed, Redroot damage rating (100=total damage to plant; 0=no damage to plant); for pest or weed control at 62.5 g/ha: 62.5 g ai/ha, 100=total damage to plant, 0=no damage to plant, read-out: Pigweed, Redroot damage rating; for pest or weed control at 250 g/ha: 250 g ai/ha
In short: as §1

[6] = test system: velvetleaf (Abutilon theophrasti); experiment: Test G Pre-Emergence Protocol; conditions: Abutilon theophrasti, pre-emergence, 312 h, evaluated after 13 days; for pest or weed control at 15.625 g/ha: 15.625 g ai/ha; for pest or weed control at 15.625 g/ha / pest or weed control at 250 g/ha: read-out: Velvetleaf damage rating (100=total damage to plant; 0=no damage to plant); for pest or weed control at 62.5 g/ha: 62.5 g ai/ha, 100=total damage to plant, 0=no damage to plant, read-out: Velvetleaf damage rating; for pest or weed control at 250 g/ha: 250 g ai/ha
In short: as §1

[7] = test system: barnyardgrass (Echinochloa crus-galli); experiment: Test G Post-Emergence Protocol; conditions: Echinochloa crus-galli, post-emergence, 312 h, read-out: Barnyardgrass damage rating; for pest or weed control at 15.625 g/ha: 15.625 g ai/ha, evaluated after 13 days (100=total damage to plant; 0=no damage to plant); for pest or weed control at 62.5 g/ha: 62.5 g ai/ha; for pest or weed control at 62.5 g/ha / pest or weed control at 250 g/ha: evaluated after 13 days, 100=total damage to plant, 0=no damage to plant; for pest or weed control at 250 g/ha: 250 g ai/ha
In short: (§2)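 Eight days post-sowing, plants received a spray of test compound (acetone/water 50:50, 0.5% Tween 20) at 15.625, 62.5 or 250 g/ha. Glasshouse regime thereafter: 24/16 °C, 14 h light, 65% humidity. Assessment after 13 days on a 0–100 damage scale.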

[8] = test system: corn (Zea mays); experiment: Test G Post-Emergence Protocol; conditions: Zea mays, post-emergence, 312 h, read-out: Corn damage rating; for plant injury at 15.625 g/ha: 15.625 g ai/ha, evaluated after 13 days (100=total damage to plant; 0=no damage to plant); for plant injury at 62.5 g/ha: 62.5 g ai/ha; for plant injury at 62.5 g/ha / plant injury at 250 g/ha: evaluated after 13 days, 100=total damage to plant, 0=no damage to plant; for plant injury at 250 g/ha: 250 g ai/ha
In short: as §2

[9] = test system: giant foxtail (Setaria faberi); experiment: Test G Post-Emergence Protocol; conditions: Setaria faberi, post-emergence, 312 h, read-out: Foxtail, Giant damage rating; for pest or weed control at 15.625 g/ha: 15.625 g ai/ha, evaluated after 13 days (100=total damage to plant; 0=no damage to plant); for pest or weed control at 62.5 g/ha: 62.5 g ai/ha; for pest or weed control at 62.5 g/ha / pest or weed control at 250 g/ha: evaluated after 13 days, 100=total damage to plant, 0=no damage to plant; for pest or weed control at 250 g/ha: 250 g ai/ha
In short: as §2

[10] = test system: ivy-leaved morning glory (Ipomoea hederacea); experiment: Test G Post-Emergence Protocol; conditions: Ipomoea, post-emergence, 312 h, read-out: Morningglory, Ivy-leaved damage rating; for pest or weed control at 15.625 g/ha: 15.625 g ai/ha, evaluated after 13 days (100=total damage to plant; 0=no damage to plant); for pest or weed control at 62.5 g/ha: 62.5 g ai/ha; for pest or weed control at 62.5 g/ha / pest or weed control at 250 g/ha: evaluated after 13 days, 100=total damage to plant, 0=no damage to plant; for pest or weed control at 250 g/ha: 250 g ai/ha
In short: as §2

[11] = test system: redroot pigweed (Amaranthus retroflexus); experiment: Test G Post-Emergence Protocol; conditions: Amaranthus retroflexus, post-emergence, 312 h, read-out: Pigweed, Redroot damage rating; for pest or weed control at 15.625 g/ha: 15.625 g ai/ha, evaluated after 13 days (100=total damage to plant; 0=no damage to plant); for pest or weed control at 62.5 g/ha: 62.5 g ai/ha; for pest or weed control at 62.5 g/ha / pest or weed control at 250 g/ha: evaluated after 13 days, 100=total damage to plant, 0=no damage to plant; for pest or weed control at 250 g/ha: 250 g ai/ha
In short: as §2

[12] = test system: velvetleaf (Abutilon theophrasti); experiment: Test G Post-Emergence Protocol; conditions: Abutilon theophrasti, post-emergence, 312 h, read-out: Velvetleaf damage rating; for pest or weed control at 15.625 g/ha: 15.625 g ai/ha, evaluated after 13 days (100=total damage to plant; 0=no damage to plant); for pest or weed control at 62.5 g/ha: 62.5 g ai/ha; for pest or weed control at 62.5 g/ha / pest or weed control at 250 g/ha: evaluated after 13 days, 100=total damage to plant, 0=no damage to plant; for pest or weed control at 250 g/ha: 250 g ai/ha
In short: as §2

Structure (SMILES) | pest or weed control at 15.625 g/ha [1] [%] | pest or weed control at 62.5 g/ha [1] [%] | pest or weed control at 250 g/ha [1] [%] | plant injury at 15.625 g/ha [2] [%] | plant injury at 62.5 g/ha [2] [%] | plant injury at 250 g/ha [2] [%] | pest or weed control at 15.625 g/ha [3] [%] | pest or weed control at 62.5 g/ha [3] [%] | pest or weed control at 250 g/ha [3] [%] | pest or weed control at 15.625 g/ha [4] [%] | pest or weed control at 62.5 g/ha [4] [%] | pest or weed control at 250 g/ha [4] [%] | pest or weed control at 15.625 g/ha [5] [%] | pest or weed control at 62.5 g/ha [5] [%] | pest or weed control at 250 g/ha [5] [%] | pest or weed control at 15.625 g/ha [6] [%] | pest or weed control at 62.5 g/ha [6] [%] | pest or weed control at 250 g/ha [6] [%] | pest or weed control at 15.625 g/ha [7] [%] | pest or weed control at 62.5 g/ha [7] [%] | other results
CN1C[C@H](c2cccc(Cl)c2)[C@@H](C(=O)Nc2cnccc2C(F)(F)F)C1=O (racemic) [Compound 1772] | 0 | 10 | 80 | 0 | 0 | 60 | 30 | 80 | 90 | 0 | 0 | 60 | 0 | 0 | 10 | 0 | 0 | 40 | 0 | 0 | pest or weed control at 250 g/ha [7]: 30%; plant injury at 15.625 g/ha [8]: 0%; plant injury at 62.5 g/ha [8]: 0%; plant injury at 250 g/ha [8]: 60%; pest or weed control at 15.625 g/ha [9]: 10%; pest or weed control at 62.5 g/ha [9]: 60%; pest or weed control at 250 g/ha [9]: 80%; pest or weed control at 15.625 g/ha [10]: 0%; pest or weed control at 62.5 g/ha [10]: 30%; pest or weed control at 250 g/ha [10]: 50%; pest or weed control at 15.625 g/ha [11]: 0%; pest or weed control at 62.5 g/ha [11]: 0%; pest or weed control at 250 g/ha [11]: 10%; pest or weed control at 15.625 g/ha [12]: 0%; pest or weed control at 62.5 g/ha [12]: 0%; pest or weed control at 250 g/ha [12]: 30%
CN1C[C@H](c2cccc(C(F)(F)F)c2)[C@@H](C(=O)Nc2cnccc2[S+](C)[O-])C1=O (mixture of isomers) [Compound 1752] | 0 | 0 | 20 | 0 | 0 | 0 | 0 | 0 | 20 | 0 | 0 | 0 | 0 | 0 | 0 | 0 | 0 | 0 | 0 | 0 | pest or weed control at 250 g/ha [7]: 0%; plant injury at 15.625 g/ha [8]: 0%; plant injury at 62.5 g/ha [8]: 0%; plant injury at 250 g/ha [8]: 0%; pest or weed control at 15.625 g/ha [9]: 0%; pest or weed control at 62.5 g/ha [9]: 0%; pest or weed control at 250 g/ha [9]: 0%; pest or weed control at 15.625 g/ha [10]: 0%; pest or weed control at 62.5 g/ha [10]: 0%; pest or weed control at 250 g/ha [10]: 0%; pest or weed control at 15.625 g/ha [11]: 0%; pest or weed control at 62.5 g/ha [11]: 0%; pest or weed control at 250 g/ha [11]: 0%; pest or weed control at 15.625 g/ha [12]: 0%; pest or weed control at 62.5 g/ha [12]: 0%; pest or weed control at 250 g/ha [12]: 0%
